Measurements: publication PMC10463376, “Design, synthesis, in vitro anticancer, molecular docking and SAR studies of new series of pyrrolo[2,3-d]pyrimidine derivatives” (BMC Chemistry, 2023)

System: caspase 3
Assay: ELISA caspase 3 in Paca2 cells
Type: cell-based, human
Conditions: control 5.34
Source text: Elisa assay was used to determine the concentrations of Human caspases-3, -8, Bax, and Bcl2 in PACA2- and A549-treated cells. Also, the concentrations of caspase-8, Bax, and Bcl2 in MCF7-treated cells were detected. The procedures were followed up according to the instructions described in the following kits; Invitrogen human Caspase-3 Elisa Kit, Catalog KHO1091, DRG® human Caspase-8 ELISA Kit, Catalog (EIA-4863), Human Bax ELISA Kit (ab199080) and Human Bcl-2 ELISA Kit (ab119506) respectively. Shortly, the protocol described in the above kits was as followed; at the beginning, all the reagents, samples and standards were prepared. 100 μl of samples or standard were micro pipetted to each well of micro-well strip and kept at room temperature for 2 h. After washing the micro-well strips three times with washing buffer, the prepared antibody (anti-rabbit-IgG-HRP) at a concentration of 100 μl was added to each well at room temperature for 1 h. Then, the micro-well strips were washed again three times. Afterward, the prepared tetramethyl-benzidine (TMB) solution (100 μl) was added to the micro-well strips and kept for 10 min. […] The absorbance of all samples was measured at a wavelength of 460 nm and compared to that of the standard. Curve fitting software was used to plot a standard curve and the concentrations for the unknown samples were measured from the standard curve.

CN1CCN(c2nc(C(Cl)(Cl)Cl)nc3c2c(-c2ccc(Br)cc2)c(Cl)n3-c2ccc(Cl)cc2Cl)CC1 [Compound 17, 5-(4-bromophenyl)-6-chloro-7-(2,4-dichlorophenyl)-4-(4-methylpiperazin-1-yl)-2-(trichloromethyl)-7H-pyrrolo[2,3-d]pyrimidine]
caspase 3 level (ELISA): 9.14 pg/mL
